# From patent publication US11208443B2, “NAF-1 derived peptides and uses thereof” (YISSUM RESEARCH DEVELOPMENT COMPANY OF THE HEBREW …, priority 2017, dated 2021)
# Non-standard residues stand in square brackets, D forms with d. Residues, ends and D or L forms follow the SMILES beside them.
# Legend:
# [1] = system: MDA-MB-231 breast cancer spheroids; assay: 3D spheroid apoptosis/cytotoxicity, Annexin V-red, IncuCyte; type: cell-based, human; conditions: incubated for 36 hours, 10 or 50 μM, FIG. 11
# Method: (§1) The MDA-MB-231 cells were plated in quadruplicate at 2×10^3 cells per well in a 96 well ULA plate (Corning 7007) and the cells were further cultured for 3 days to form spheroids. Then, the spheroids were treated with the peptides having SEQ ID NO:1 and the apoptosis of spheroids was assayed using Annexin V-red detection marker. Spheroids were imaged at ×10 magnification in an IncuCyte Zoom Live-cell analysis system (Essen Bioscience) at 37° C. with 5% CO2. Spheroid cell images were recorded every two hours and the resulting red colors, reflecting cell apoptosis, were analyzed with the IncuCyte software.)
# (§2) Similarly to Example 2, the effect of D-PEP on “tumor like” 3D cancer cell spheroids of prostate cancer cells PC3 and MDA-MB-231, was tested and quantified. Annexin V-red apoptosis marker indicator was used to assess cytotoxicity and the cytotoxicity was calculated as integrated intensity over the surface (RCU×μm^2/Image).
# [2] = system: PC3 (prostate cancer) spheroids; assay: 3D spheroid cytotoxicity, Annexin V-red, IncuCyte; type: cell-based
# Method: as §1, §2
# [3] = Mice weight in xenograft study; type: in vivo; conditions: 135 μg/Kg IP or IT, days 18-30; all groups
# Method: 30 female athymic nude (FOXN1NU) mice (5-6 weeks old) were injected subcutaneously (S.C.) with 2.5×10^6 MDA-MB-231 cells overexpressing NAF-1. Two and half weeks (day 18) after S.C. injection, mice weight and tumor size was measured. Mice were divided into three different treatment groups that were administrated 3 serial injections per week, on days 18, 21, 23, 25, 28, and 30. The groups were as follows: Group 1: Intraperitoneal (IP) injection of 135 μg/Kg D-PEP; Group 2: Intratumoral (IT) injection of PBS—control; and Group 3: Intratumoral (IT) injection of 135 μg/Kg D-PEP. On days 18, 21, 23, 25, 28 and 30 after S.C. injection of the tumor cells, tumor size and mice weight was measured in all groups.
# chymotrypsin = assay: Stability against protease cleavage, HPLC; type: in vitro ADME; conditions: 0.001 mg/ml protease, 22° C., FIG. 17A
# Method: (§3) Stability of the D-PEP, and 3D-PEP, analogs, and of PEG-N-3D-PEP and PEG-C-3D-PEP conjugates against protease cleavage (chymotrypsin and trypsin) was tested and compared to stability of the native peptide having SEQ ID NO: 1. To peptides' stocks of 430 μl in concentration of 450 μM were added 0.001 mg/ml protease (Trypsin or Chymotrypsin) and incubated in room temperature (22° C.). Samples of 40 μl were taken before adding the protease and after every 15 min in the first hour, and after 2 […] and 24 h. To stop the proteolysis samples were added 7 μl of 2% TFA in TDW. The samples were added 60 μl TDW and were analyzed using analytical HPLC.
# trypsin = assay: Stability against protease cleavage, HPLC; type: in vitro ADME; conditions: 0.001 mg/ml protease, 450 μM peptide, 22° C.; FIG. 17B
# Method: as §3
SMILES,cytotoxicity (total toxicity integrated intensity) [1],"cytotoxicity (total toxicity integrated intensity) ([2]; 10 μM, incubation for 8 hours, FIG. 7)","cytotoxicity (total toxicity integrated intensity) ([2]; 50 μM, 36 hour, compared to control, FIG. 8)","cytotoxicity (total toxicity integrated intensity) ([2]; 50 μM, incubation for 8 hours, FIG. 7)",mice weight [3],"metabolised at 1400 min, 450 μM (chymotrypsin; chymotrypsin (isolated protease), after 1400 min, read-out: peptide degraded by chymotrypsin)",time to complete degradation by chymotrypsin (chymotrypsin; 450 μM peptide),time to complete degradation by trypsin (trypsin)
"CC(C)C[C@@H](NC(=O)[C@H](N)Cc1ccccc1)C(=O)NCC(=O)N[C@@H](C(=O)N[C@H](CC(C)C)C(=O)N[C@H](C)C(=O)N[C@H](CC(C)C)C(=O)N[C@H](CC(C)C)C(=O)NCC(=O)N[C@H](Cc1ccc(O)cc1)C(=O)N[C@H](CC(C)C)C(=O)N[C@H](C)C(=O)N[C@@H](C(=O)N[C@H](CCCNC(=N)N)C(=O)N1CCC[C@@H]1C(=O)N[C@H](Cc1ccccc1)C(=O)N[C@H](CC(C)C)C(=O)N1CCC[C@@H]1C(=O)N[C@H](CCCCN)C(=O)N[C@H](CCCCN)C(=O)N[C@H](CCCCN)C(=O)N[C@H](CCC(N)=O)C(=O)N[C@H](CCC(N)=O)C(=O)N[C@H](CCCCN)C(=O)O)C(C)C)C(C)C [D-PEP, flgvlallgylavrpflpkkkqqk] (H-[dF][dL]G[dV][dL][dA][dL][dL]G[dY][dL][dA][dV][dR][dP][dF][dL][dP][dK][dK][dK][dQ][dQ][dK]-OH; N-terminus and C-terminus assumed)",comparable to that seen for PC3 cell,much more moderate,much more significant cytotoxic effect than 10 μM of D-PEP,substantial cytotoxic effect,not significant change in the weight of mice,20%,,
CC(C)C[C@H](NC(=O)[C@H](C)NC(=O)[C@H](CC(C)C)NC(=O)[C@@H](NC(=O)CNC(=O)[C@H](CC(C)C)NC(=O)[C@@H](N)Cc1ccccc1)C(C)C)C(=O)N[C@@H](CC(C)C)C(=O)NCC(=O)N[C@@H](Cc1ccc(O)cc1)C(=O)N[C@@H](CC(C)C)C(=O)N[C@@H](C)C(=O)N[C@H](C(=O)N[C@@H](CCCNC(=N)N)C(=O)N1CCC[C@H]1C(=O)N[C@@H](Cc1ccccc1)C(=O)N[C@@H](CC(C)C)C(=O)N1CCC[C@H]1C(=O)N[C@@H](CCCCN)C(=O)N[C@@H](CCCCN)C(=O)N[C@@H](CCCCN)C(=O)N[C@@H](CCC(N)=O)C(=O)N[C@@H](CCC(N)=O)C(=O)N[C@@H](CCCCN)C(=O)O)C(C)C [SEQ ID NO: 1] (H-FLGVLALLGYLAVRPFLPKKKQQK-OH; N-terminus and C-terminus assumed),,,,,,,~100 min,400 min
